The results in this text go back to ChEMBL document CHEMBL1129411, “Synthesis and dopamine transporter affinity of 2-(methoxycarbonyl)-9-methyl-3-phenyl-9-azabicyclo[3.3.1]nonane derivatives” (J Med Chem, 1996).

pKi: −log10 of the molar value. Bounds are passed on as bounds.

The target in this assay is Sodium-dependent dopamine transporter (Rattus norvegicus, UniProt P23977). Put plainly: Binding affinity against dopamine transporter in rat caudate putamen tissue using [3H]WIN-35428 radioligand. It is filed as tissue-based.
Chain of Sodium-dependent dopamine transporter (P23977 whole entry): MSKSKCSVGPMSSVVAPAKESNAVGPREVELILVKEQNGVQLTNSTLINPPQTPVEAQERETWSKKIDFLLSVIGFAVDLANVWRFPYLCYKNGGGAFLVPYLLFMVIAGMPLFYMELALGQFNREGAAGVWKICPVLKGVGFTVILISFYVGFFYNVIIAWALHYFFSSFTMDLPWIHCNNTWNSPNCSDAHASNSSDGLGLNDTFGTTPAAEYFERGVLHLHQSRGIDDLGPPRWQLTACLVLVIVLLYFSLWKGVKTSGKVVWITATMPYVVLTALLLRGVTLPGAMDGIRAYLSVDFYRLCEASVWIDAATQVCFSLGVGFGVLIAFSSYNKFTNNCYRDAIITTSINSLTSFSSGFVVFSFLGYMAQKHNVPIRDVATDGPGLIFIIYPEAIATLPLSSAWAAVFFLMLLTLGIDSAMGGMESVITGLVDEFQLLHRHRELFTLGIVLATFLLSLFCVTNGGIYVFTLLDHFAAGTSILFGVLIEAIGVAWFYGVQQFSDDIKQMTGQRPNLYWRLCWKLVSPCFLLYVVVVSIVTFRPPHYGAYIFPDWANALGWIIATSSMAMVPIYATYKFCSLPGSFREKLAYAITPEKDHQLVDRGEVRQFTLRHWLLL
In the case of `CO/C(O)=C1/C(=O)CCC2CCCC1N2C` (centres undefined), the pKi was < 4.00.

Take `COC(=O)[C@@H]1C2CC[C@H](C[C@@H]1c1ccccc1)N2C`: the pKi was 6.51.

As for `CN1C2CCCC1C(C(=O)c1ccccc1)C(c1ccccc1)C2` (stereo in doubt; 13), the pKi is 5.40.

Consider `CN1C2CCCC1C(C(=O)c1ccccc1)C(c1ccccc1)C2` (stereo in doubt; 14), for which the pKi is 5.72.
